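1) Cells in 96-well plates. 2) Compound, 48 h, 5 concentrations. 3) Linear interpolation between surrounding doses. 4) Unreached endpoint = highest concentration. GI50: concentration for 50% inhibition of growth.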 Active and inactive are the calls of the source. Cut-off read from the data, not from the text of the source: active = GI50 up to about 1.1 µM and inactive = higher.
Columns and labels:
Test in all cases: NCI tumour cell line growth inhibition, 48 h
IGROV-1 = system: IGROV-1
HOP-92 = system: HOP-92
TK-10 = system: TK-10
SF-268 = system: SF-268
OVCAR-8 = system: OVCAR-8
HCT-116 = system: HCT-116
DU-145 = system: DU-145
786-0 = system: 786-0
NCI-H460 = system: NCI-H460
U-251 = system: U-251
SN12C = system: SN12C
SF-295 = system: SF-295
RXF 393 = system: RXF 393
SW-620 = system: SW-620
HL-60 = system: HL-60
HCT-15 = system: HCT-15
ACHN = system: ACHN
NCI/ADR-RES = system: NCI/ADR-RES

Row | Compound | GI50 (IGROV-1) | GI50 (HOP-92) | GI50 (TK-10) | GI50 (SF-268) | GI50 (OVCAR-8) | GI50 (HCT-116) | GI50 (DU-145) | GI50 (786-0) | GI50 (NCI-H460) | GI50 (U-251) | GI50 (SN12C) | GI50 (SF-295) | GI50 (RXF 393) | GI50 (SW-620) | GI50 (HL-60) | GI50 (HCT-15) | GI50 (ACHN) | GI50 (NCI/ADR-RES)
1 | OC(c1cc2ccccc2[nH]1)C1(c2cccnc2)SCCCS1 (centres undefined) | 53.8 µM (inactive) | > 100 µM (inactive) | > 100 µM (inactive) | 43.3 µM (inactive) | 63.8 µM (inactive) | 59 µM (inactive) | > 100 µM (inactive) | 97.3 µM (inactive) | 94.6 µM (inactive) | 47.1 µM (inactive) | 99.3 µM (inactive) | 68.5 µM (inactive) | 31.8 µM (inactive) | 90.6 µM (inactive) | 26.2 µM (inactive) | 84.7 µM | 86.5 µM (inactive) | 53.3 µM (inactive)
2 | C[C@H]1C=C2[C@@H]3CC(C)(C(=O)O)CC[C@]3(C)CC[C@]2(C)[C@]2(C)CC[C@H]3C(C)(C)[C@@H](OC(=O)c4cccc5c(=O)c6ccccc6[nH]c45)CC[C@]3(C)[C@@H]12 (some centres undefined) | > 100 µM (inactive) | > 100 µM (inactive) | > 100 µM (inactive) | > 100 µM (inactive) | 41.7 µM (inactive) | 89.7 µM (inactive) | 67.5 µM (inactive) | > 100 µM (inactive) | 41 µM (inactive) | 81.5 µM (inactive) | > 100 µM (inactive) | > 100 µM (inactive) | > 100 µM (inactive) | > 100 µM (inactive) | 38.4 µM (inactive) | > 100 µM | 67.3 µM (inactive) | 54.6 µM (inactive)
3 | OC(CCN1CCN(CCOC(c2ccc(F)cc2)c2ccc(F)cc2)CC1)c1ccc(Br)cc1 (centres undefined) | 4.57 µM (inactive) | 4.37 µM (inactive) | 6.76 µM (inactive) | 4.76 µM (inactive) | 2.02 µM (inactive) | 2.8 µM (inactive) | 6.21 µM (inactive) | 2.68 µM (inactive) | 2.42 µM (inactive) | 4.11 µM (inactive) | 2.68 µM (inactive) | 4.62 µM (inactive) | 3.94 µM (inactive) | 4.67 µM (inactive) | 2.77 µM (inactive) | 2.74 µM | 4.76 µM (inactive) | 2.21 µM (inactive)
4 | CCn1sc2ccccc2c1=O | 6.73 µM (inactive) | 10.1 µM (inactive) | 16.5 µM (inactive) | 17.3 µM (inactive) | 9.12 µM (inactive) | 14.8 µM (inactive) | 20.4 µM (inactive) | 2.34 µM (inactive) | 32.1 µM (inactive) | 6 µM (inactive) | 5.32 µM (inactive) | 29.1 µM (inactive) | 4.81 µM (inactive) | 6.35 µM (inactive) | 3.78 µM (inactive) | 7.94 µM | 7.62 µM (inactive) | 18.2 µM (inactive)
5 | COC(=O)c1c(O)ccc2c1c1cc3ccccc3cc1n2Cc1cc(OC)cc(OC)c1 | 0.678 µM (active) | 11.7 µM (inactive) | > 23.2 µM (inactive) | 2.75 µM (inactive) | 6.38 µM (inactive) | 1.13 µM (inactive) | 2.53 µM (inactive) | 3.55 µM (inactive) | 2.57 µM (inactive) | 4.45 µM (inactive) | 7.85 µM (inactive) | 1.11 µM (active) | 3.96 µM (inactive) | 3.61 µM (inactive) | 2.92 µM (inactive) | 1.46 µM | 1.74 µM (inactive) | 1.4 µM (inactive)
6 | O=C(O)C1=NN(c2ccc(S(=O)(=O)O)cc2)C2(C1)SCC(=O)N2c1nc2ccccc2s1 (centres undefined) | > 100 µM (inactive) | > 100 µM (inactive) | > 100 µM (inactive) | > 100 µM (inactive) | > 100 µM (inactive) | > 100 µM (inactive) | > 100 µM (inactive) | > 100 µM (inactive) | > 100 µM (inactive) | > 100 µM (inactive) | > 100 µM (inactive) | > 100 µM (inactive) | > 100 µM (inactive) | > 100 µM (inactive) | > 100 µM (inactive) | > 100 µM | > 100 µM (inactive) | > 100 µM (inactive)
7 | Cc1cc(=O)oc2cc(OC(=O)N(CCCl)CCCl)ccc12 | 94.4 µM (inactive) | 18.2 µM (inactive) | > 100 µM (inactive) | > 100 µM (inactive) | > 100 µM (inactive) | > 100 µM (inactive) | > 100 µM (inactive) | > 100 µM (inactive) | > 100 µM (inactive) | > 100 µM (inactive) | > 100 µM (inactive) | > 100 µM (inactive) | > 100 µM (inactive) | > 100 µM (inactive) | > 100 µM (inactive) | 77.6 µM | > 100 µM (inactive) | 99.1 µM (inactive)
8 | CCNC(=S)N/N=C(\C)c1cccc(C)n1 | 4.36 µM (inactive) | 13.5 µM (inactive) | > 100 µM (inactive) | 2.4 µM (inactive) | 3.44 µM (inactive) | 7.18 µM (inactive) | 14.9 µM (inactive) | 12.8 µM (inactive) | 6.01 µM (inactive) | 7.43 µM (inactive) | 11.8 µM (inactive) | 26.9 µM (inactive) | 45.3 µM (inactive) | 18.6 µM (inactive) | 3.47 µM (inactive) | 7.18 µM | 9.27 µM (inactive) | 8.45 µM (inactive)

Reference: ChEMBL document CHEMBL1201862, “PubChem BioAssay data set” (2004)
